Reference: patent publication US20030224467A1, “AIB1 as a prognostic marker and predictor of resistance to endocrine therapy” (priority 2002, published 2003)
“Also recorded” adds a separate entry of the source.

Tests used:
[1] = test system: phosphorylated MAPK, AIB1; assay: Immunoblot of MCF-7/HER-218 tumors from treated mice
Method: Treated cells were then immediately harvested. Cells were first rinsed twice with cold PBS, and lysed in 1×cell lysis buffer (Cell Signaling Technology) supplemented with 10% Glycerol, 1 mM Pherryl Methylsulfonyl Fluoride (PMSF), 1×Complete Protease inhibitor mixture (Roche, Indianapolis, Ind.), 1 μM Okadaic acid, 10 μg/mL Microsystin as instruction from Cell Signaling Technology. […] 20 μg of protein extracts from individual treatments were electrophoresized on SDS-PAGE gel (Invitrogen), and electroblotted to nitrocellulose membrane (Millipore, Bedford, Mass.). Membranes were blocked with blocking buffer (5% w/v nonfat dry milk in 1×TBS with 0.1% Tween-20, TBST) for 1 hr and then incubated with primary antibody in 5% BSA TBST (for all phospho antibodies with gentle agitation overnight at 4° C., otherwise in blocking buffer for 2 hrs at room temperature). After washing and incubating with secondary horseradish peroxidase conjugated antibodies against mouse or rabbit IgG (Amershan, Arlington Heoghts, Ill. Immunoreactive proteins were detected by the ECL (Amershan). Quantitation was performed by using NIH Imagine Software.

[2] = test system: AIB1 in MCF-7/HER-218 cells; assay: Western blot mobility shift of AIB1; format: cell-based, human
Method: (§1) In PPase treatment group, cell extracts were incubated with PPase prior to analysis as previously described. Antibody against AIB1 was used.

MCF-7/HER-218 cells = assay: S-phase fraction of cells; format: cell-based, human; conditions: agent alone
[3] = test system: ER in MCF-7/HER-218 cells; assay: ERE luciferase reporter, ER dependent transcription; format: cell-based, human
[4] = test system: pS2 promoter in MCF-7 cells; assay: Chromatin immunoprecipitation on the pS2 promoter; conditions: 20 minute incubation
Method: (§2) Wild type MCF7 and HER-2-18 cells were grown to 90% confluence in phenol red-free IMEM supplemented with 10% CDS FBS for 7 days, the cells were starved completely with phenol red-free IMEM (without serum) for overnight. […] Cells were pelleted and lysis in 1 ML SDS lysis buffer and incubated on ice for 10 min. Lysate was sonicated by three times for 10 sec. at maximum setting followed by centrifugation for 10 min at 4 C. 200 ul of supernatant was, subjected to each immunoprecipitation with specific antibody, diluted with ChIP dilution buffer 10 fold and pre-cleared with 80 ul of SS-DNA/Protein A/G agarose plus 20 ul of normal mouse or rabbit IgG (Santa Cruz) depending on primary antibody used afterward for 4 hrs at 4 C. The beads were collected and saved as normal IgG control. The pre-cleared supernatant was immunoprecipitated with antibodies against ER, or AIB1, or NcoR, or Act-H3, respectively at 4° C. for overnight, followed by SS-DNA/Protein A/G at 4 C. for 1 hr. Pellet agarose by gentle centrifugation (1000 rpm, 1 min, 4° C.). The pellets were intensively washed sequentially as follows in 1 ml volume: low salt wash buffer X 1 time, high salt wash buffer X 1 time, LiCl salt wash buffer X 1 time, TE X 2 times. […]

ER in MCF-7 cells = assay: ERE luciferase reporter, ER dependent transcription; format: cell-based, human
MCF-7 cells = assay: S-phase fraction of cells; format: cell-based, human; conditions: agent alone
primary breast cancer = assay: Five-year disease-free survival of node-positive breast cancer patients on tamoxifen adjuvant therapy, by AIB1 and HER-2 status; format: in vivo, human
Method: Frozen tumor specimens from 316 patients, all of whom had positive axillary lymph nodes at the time of initial surgery, were selected for study. Such patients have higher recurrence rates after primary treatment, resulting in more events for statistical power. […] The median follow-up for patients still living is 95 months. Proteins from 30 mg of tissue were extracted in 300 μl 5% SDS at 90° C. for 5 minutes. Protein concentration was determined using the BCA method (Pierce, Rockford, Ill.); typical yields were 2-5 μg/μl. Samples were stored at −70° C. until use.
Assays were performed and results quantified by an investigator blinded to clinical information. 20 μg of extracted protein in sample buffer (0.05 M tris, pH 6.8, containing 2% SDS, 2.5% β-mercaptoethanol, 10% glycerol, and 0.1% bromphenol blue as tracking dye) were placed in boiling water for 2 minutes, cooled to room temperature, and centrifuged for 1 minute. An MCF-7 reference standard (5 μg protein per lane) was included on each gel as a normalization control. Proteins were electrophoresed on 8% Tricine-Glycine polyacrylamide gels (Invitrogen, Carlsbad, Calif.) and then transferred onto nitrocellulose. Blots were rinsed 5 minutes with TBS (TRIS-buffered saline: 100 mM TRIS, pH 7.5, and 0.9% NaCl) containing 0.1% Tween-20 (TBST). After blocking with 5% nonfat dry milk in TBST, the blots were incubated overnight at 4° C. in the primary antibody (1:1000 rabbit anti-RAC3 antiserum). This antibody was raised in rabbits against a MBP fusion protein containing amino acid residues 582-842 of human RAC3 (AIB1).
The blots were washed 3 times in TBST, followed by incubation for 1 hour in 5% nonfat dry milk in TBST and 1:5000 horseradish peroxidase labeled anti-rabbit Ig (Amersham, Piscataway, N.J.). The blots were washed 5 times in TBST, after which the labeled protein was visualized on a FluorChem digital imaging system (Alpha Innotech, San Leandro, Calif.) using an enhanced chemiluminescence detection system. Band intensities were measured densitometrically using the AlphaEaseFC software (Alpha Innotech, San Leandro, Calif.). AIB1 levels in tumors were normalized to the AIB1 concentration in the MCF-7 positive control lysate (5 μg) from the same immunoblot.
ER and progesterone receptors (PR) were measured by ligand binding assays as described by Harvey et al., 1999. S-phase fraction was calculated by DNA flow cytometry and classified as low, intermediate, or high (Wenger et al, 1998). Immunohistochemistry was used to semiquantitatively measure p53 and bcl 2 expression, and HER-2 expression was determined by western blot analyses as described by Elledge et al., 1997, and Tandon et al., 1989.
Associations between AIB1, steroid receptors, HER-2 and other molecular markers, and clinical variables were assessed using Spearman rank correlation. The disease-free survival (DFS) was calculated from the date of diagnosis. First recurrence (local or distant) was scored as an event, and patients without recurrence were censored at the time of last follow-up or death, meaning that an event of interest (e.g., recurrence or death) has not yet occurred. For graphical presentation, follow-up was truncated at 120 months. Overall survival was calculated from the date of diagnosis, with death from any cause being scored as an event. Patients who were alive at the last follow-up were censored at the last follow-up date. Survival curves were derived from Kaplan-Meier estimates, which are well known in the art, and the curves were compared by log-rank tests. Initially, separate analyses were performed for treated and untreated patients. The influence of AIB1 adjusted for other prognostic factors was assessed in multivariate analysis by Cox proportional hazards models.

[5] = test system: ER, EGF-R, HER-2/neu, MAPK and AKT in MCF-7/HER-218 cells; assay: Phosphorylation analysis by western immunoblotting; conditions: for Phosphorylation of EGF-R, HER-2/neu and MAPK / Phosphorylation of ER on serine 118: short-term (20 minutes)
Method: (§3) Treatments of cells with E2, 4HOT, EGF or HRG were conducted after cells were starved in phenol red-free, serum-free IMEM for 24 hr.
(§4) Treated cells were then immediately harvested. Cells were first rinsed twice with cold PBS, and lysed in 1×cell lysis buffer (Cell Signaling Technology) supplemented with 10% Glycerol, 1 mM Pherryl Methylsulfonyl Fluoride (PMSF), 1×Complete Protease inhibitor mixture (Roche, Indianapolis, Ind.), 1 μM Okadaic acid, 10 μg/mL Microsystin as instruction from Cell Signaling Technology. Protein concentration was measured by Bio-Rad Protein Assay kit (Bio-Rad, Hercules, Calif.) according to manufacturer's instruction. 20 μg of protein extracts from individual treatments were electrophoresized on SDS-PAGE gel (Invitrogen), and electroblotted to nitrocellulose membrane (Millipore, Bedford, Mass.). Membranes were blocked with blocking buffer (5% w/v nonfat dry milk in 1×TBS with 0.1% Tween-20, TBST) for 1 hr and then incubated with primary antibody in 5% BSA TBST (for all phospho antibodies with gentle agitation overnight at 4° C., otherwise in blocking buffer for 2 hrs at room temperature). After washing and incubating with secondary horseradish peroxidase conjugated antibodies against mouse or rabbit IgG (Amershan, Arlington Heoghts, Ill. Immunoreactive proteins were detected by the ECL (Amershan). Quantitation was performed by using NIH Imagine Software.

[6] = test system: pS2 promoter in MCF-7/HER-218 cells; assay: Chromatin immunoprecipitation on the pS2 promoter; conditions: 20 minute incubation
Method: as §2

[7] = test system: ER, EGF-R, HER-2/neu, MAPK and AKT in parental MCF-7 cells; assay: Phosphorylation analysis by western immunoblotting; conditions: for Phosphorylation of EGF-R and HER-2/neu / Phosphorylation of ER on serine 118 / Phosphorylation of MAPK and AKT: short-term (20 minutes)
Method: as §3, §4

[8] = test system: estrogen responsive genes in wild-type MCF-7 cells; assay: Endogenous estrogen responsive gene induction (immunoblot); conditions: 12 hr induction
Description: (§5) The cellharvest, cell extraction preparation and immunobloting were as above.

[9] = test system: HER-2/neu and MAPK in BT474 cells; assay: Phosphorylation analysis by western immunoblotting; conditions: 20 minute treatment
Method: as §4

MCF-7/HER-218 tumors = assay: Athymic nude mouse model, MCF-7/HER-218 tumor growth; format: in vivo, mice; conditions: continued estrogen, or estrogen withdrawal plus tamoxifen, compared to estrogen withdrawal alone
Method: Ovariectomised female BALB/c-nu+/nu+ mice 4-5 weeks of age were purchased from Harlan Sprague-Dawley (Madison, Wis.). […] Estrogen pellets (0.25 mg, 21 day release) were purchased from Innovative Research (Rockville, Md.) and half a pellet placed subcutaneously in the interscapular area of each animal on the day prior to cell injection. MCF-7/HER-218 cells were grown in 150 cm^3 flasks and split 1:5 in DMEM (Invitrogen, Calif.) supplemented with 10% FBS. When flask cell confluence reached 90-100%, cells were harvested using a soft rubber scraper, then spun down at 1000 rpm for 3 minutes, and resuspended in the original media for injection. Cells were injected at 5×10^6−1×10^7 in 0.2 ml per animal in the right mammary fat pad. […] Each individual group had 8 animals (n=8). […] Tumors were subsequently measured weekly and recorded according to the formula: Tumor volume=width^2×length/2. Animal were weighed every 2 weeks and monitored for toxicity. Tumor growth curves were constructed using the mean of tumors' volume at each measurement point with the error bars representing the standard error of the mean. Student's t-test was used to compare data between two groups. Values are expressed as relative to tumor volume to size at the beginning of treatment as mean ±s.d.

[10] = test system: estrogen responsive genes in MCF-7/HER-218 cells; assay: Endogenous estrogen responsive gene induction (immunoblot); conditions: for Protein expression of endogenous estrogen responsive genes: 12 hr induction
Description: as §5

parental MCF-7 tumors = assay: Parental MCF-7 tumor growth; format: in vivo, mice; conditions: wild-type MCF-7, tamoxifen
AIB1 in MCF-7 cells = assay: Western blot mobility shift of AIB1; format: cell-based, human; conditions: reversed by phosphatase treatment
Method: as §1

CC/C(=C(\c1ccccc1)c1ccc(OCCN(C)C)cc1)c1ccccc1 [tamoxifen]
Total and phosphorylated AIB1 in tumors ([1]; MCF-7/HER-218 tumors of treated mice): induced; also recorded: both higher
Tumor level of phosphorylated (active) MAPK ([1]; estrogen, or estrogen withdrawal plus tamoxifen, versus estrogen withdrawal alone): activate MAPK and high
AIB1 phosphorylation (mobility shift of AIB1 band) [2]: phosphorylation of AIB1 was observed
Fraction of cells in S-phase (MCF-7/HER-218 cells): stimulated the fraction of cells in S-phase
ERE luciferase activity above control ([3]; agent alone): inability
Occupancy of the pS2 promoter [4]: induced occupancy of this promoter by ER but not by AIB1
ERE luciferase activity (ER in MCF-7 cells; agent alone): no agonist activity
Percent of cells in S-phase (MCF-7 cells): no agonist effect
5 yr DFS (primary breast cancer; High HER-2 (grade 2-4), High AIB1 (top quartile)): 42%
5 yr DFS (primary breast cancer; High HER-2 (grade 2-4), High AIB1 (top quartile), listed as Tamoxifen): 42%
5 yr DFS (primary breast cancer; High HER-2 (grade 2-4), Low AIB1 (lower 3 quartiles)): 77%
5 yr DFS (primary breast cancer; High HER-2 (grade 2-4), Low AIB1 (lower 3 quartiles), listed as Tamoxifen): 77%
5 yr DFS (primary breast cancer; Low HER-2 (grade 0-1), High AIB1 (top quartile)): 82%
5 yr DFS (primary breast cancer; Low HER-2 (grade 0-1), Low AIB1 (lower 3 quartiles)): 64%
5-year DFS (primary breast cancer; other three groups combined (not high AIB1 and high HER-2)): 70%
MAPK phosphorylation ([5]; 48 hour treatment): striking effects
Phosphorylation of ER ([5]; 48 hour treatment): still evident
Phosphorylation of EGF-R, HER-2/neu and MAPK [5]: phosphorylation was detected
Phosphorylation of ER on serine 118 [5]: phosphorylated
Occupancy of the pS2 promoter [6]: induced occupancy of the pS2 promoter by ER and by AIB1
MAPK phosphorylation ([7]; 48 hour treatment): no effect
Phosphorylation of ER ([7]; 48 hour treatment): still evident
Phosphorylation of EGF-R and HER-2/neu [7]: could not detect phosphorylation
Phosphorylation of ER on serine 118 [7]: phosphorylate
Phosphorylation of MAPK and AKT [7]: could not detect phosphorylation
Protein expression of endogenous estrogen responsive genes [8]: no agonist activity
Phosphorylated HER-2/neu and MAPK [9]: striking increase
Tumor growth (MCF-7/HER-218 tumors): increased tumor growth; also recorded: stimulated
Protein expression of endogenous estrogen responsive genes [10]: behaved as an estrogen agonist on all of the genes
Tumor growth (parental MCF-7 tumors): inhibited

EGF: epidermal growth factor purchased from Invitrogen (NSDSECPLSHDGYCLHDGVCMYIEALDKYACNCVVGYIGERCQYRDLKWWELR; Epidermal growth factor; UniProt P01133 971-1023, looked up)
Phosphorylation of EGF-R, HER-2/neu and MAPK [5]: phosphorylation was detected
Phosphorylation of ER on serine 118 [5]: phosphorylated
Phosphorylation of EGF-R and HER-2/neu [7]: unable to detect phosphorylation
Phosphorylation of ER on serine 118 [7]: phosphorylate
Phosphorylation of MAPK and AKT [7]: did phosphorylate MAPK and AKT

heregulin
AIB1 phosphorylation (mobility shift of AIB1 band) [2]: phosphorylation of AIB1 was observed
AIB1 phosphorylation (mobility shift of AIB1 band) (AIB1 in MCF-7 cells): upshifted the AIB1 band
Fraction of cells in S-phase (MCF-7/HER-218 cells): stimulated the fraction of cells in S-phase
ERE luciferase activity in response to both estrogen and tamoxifen ([3]; heregulin added): remarkably enhanced luciferase activity
Estrogen agonist properties of tamoxifen (luciferase) ([3]; heregulin added to tamoxifen): levels above estrogen alone
ERE luciferase activity (ER in MCF-7 cells; heregulin added to estrogen): two fold
ERE luciferase activity (ER in MCF-7 cells; heregulin added to tamoxifen): increase luciferase activity a small amount
Percent of cells in S-phase (MCF-7 cells): markedly increased the S-phase fraction
Phosphorylation of EGF-R, HER-2/neu and MAPK [5]: phosphorylation was detected
Phosphorylation of ER on serine 118 [5]: phosphorylated
Phosphorylation of EGF-R and HER-2/neu [7]: strongly phosphorylated
Phosphorylation of ER on serine 118 [7]: phosphorylate
Phosphorylation of MAPK and AKT [7]: strongly phosphorylated
Protein expression of endogenous estrogen responsive genes [8]: induced the expression of all of the genes except for progesterone receptor
Protein expression of endogenous estrogen responsive genes [10]: dramatic effects on several of these genes
Level of IRS1 ([10]; heregulin): large increase
Protein expression of progesterone receptor ([10]; heregulin): increased
